Measurements published in ChEMBL document CHEMBL1157538, “Discovery of a potent, selective, and orally bioavailable c-Met inhibitor: 1-(2-hydroxy-2-methylpropyl)-N-(5-(7-methoxyquinolin-4-yloxy)pyridin-2-yl)-5-methyl-3-oxo-2-phenyl-2,3-dihydro-1H-pyrazole-4-carboxamide (AMG 458)” (J Med Chem, 2008).

Tests used:
[1] = target: T1, Hepatocyte growth factor receptor (Homo sapiens, UniProt P08581); experiment: Inhibition of HGF-mediated c-Met phosphorylation in human PC3 cells; format: cell-based, PC-3
[2] = target: T1, Hepatocyte growth factor receptor; experiment: Inhibition of c-Met phosphorylation by HTRF assay
[3] = Intrinsic clearance in Sprague-Dawley rat liver microsome; format: ADME; conditions: liver microsomes
[4] = Half life in rat; format: ADME, organism-based; conditions: in vivo
[5] = Oral bioavailability in rat; format: ADME, organism-based; conditions: in vivo
[6] = Clearance in rat; format: ADME, organism-based; conditions: in vivo
[7] = Intrinsic clearance in human liver microsome; format: ADME; conditions: liver microsomes
[8] = Intrinsic clearance in BALB/c mouse liver microsome; format: ADME; conditions: liver microsomes

Row | IC50 [1] | Ki [2] | microsomal CLint [3] | half-life [4] | bioavailability [5] | clearance [6] | microsomal CLint [7] | microsomal CLint [8] | Compound
1 | 50 nM | 2.7 nM |  |  |  |  |  |  | COc1ccc2c(Oc3ccc(NC(=O)c4c(C)n(CC(C)(C)O)n(-c5ccccc5)c4=O)cc3F)ccnc2c1
2 |  |  | < 60 µL/min/mg | 1.9 h | > 50% | < 3.33 mL/min/kg | < 55 µL/min/mg | < 45 µL/min/mg | COc1ccc2c(Oc3ccc(NC(=O)c4c(C)n(C[C@H](C)O)n(-c5ccccc5)c4=O)cc3F)ccnc2c1
